Experimental data: ChEMBL document CHEMBL3621049, “Imidazole derivatives show anticancer potential by inducing apoptosis and cellular senescence” (2014)
The source made the active and inactive calls.

Legend:
Assay type in all cases: functional, cell-based
MDA-MB-435 = assay: Growth inhibition of human MDA-MB-435 cells at 10 uM by sulforhodamine B assay
SK-OV-3 = assay: Growth inhibition of human SKOV3 cells at 10 uM by sulforhodamine B assay
MCF7 = assay: Growth inhibition of human MCF7 cells at 10 uM by sulforhodamine B assay
UACC-62 = assay: Growth inhibition of human UACC62 cells at 10 uM by sulforhodamine B assay
786-0 = assay: Growth inhibition of human 786-0 cells at 10 uM by sulforhodamine B assay
OVCAR-4 = assay: Growth inhibition of human OVCAR4 cells at 10 uM by sulforhodamine B assay
NCI-H522 = assay: Growth inhibition of human NCI-H522 cells at 10 uM by sulforhodamine B assay
HCT-116 = assay: Growth inhibition of human HCT116 cells at 10 uM by sulforhodamine B assay
PC-3 = assay: Growth inhibition of human PC3 cells at 10 uM by sulforhodamine B assay
COLO 205 = assay: Growth inhibition of human COLO205 cells at 10 uM by sulforhodamine B assay
A549 = assay: Growth inhibition of human A549/ATCC cells at 10 uM by sulforhodamine B assay
SW-620 = assay: Growth inhibition of human SW620 cells at 10 uM by sulforhodamine B assay
U-251 = assay: Growth inhibition of human U251 cells at 10 uM by sulforhodamine B assay
HL-60(TB) = assay: Growth inhibition of human HL-60(TB) cells at 10 uM by sulforhodamine B assay
UACC-257 = assay: Growth inhibition of human UACC257 cells at 10 uM by sulforhodamine B assay
Hs-578T = assay: Growth inhibition of human Hs 578T cells at 10 uM by sulforhodamine B assay
SN12C = assay: Growth inhibition of human SN12C cells at 10 uM by sulforhodamine B assay
NCI/ADR-RES = assay: Growth inhibition of human NCI/ADR-RES cells at 10 uM by sulforhodamine B assay
MDA-MB-231 = assay: Growth inhibition of human MDA-MB-231 cells at 10 uM by sulforhodamine B assay
MDA-MB-468 = assay: Growth inhibition of human MDA-MB-468 cells at 10 uM by sulforhodamine B assay
OVCAR-3 = assay: Growth inhibition of human OVCAR3 cells at 10 uM by sulforhodamine B assay
DU-145 = assay: Growth inhibition of human DU145 cells at 10 uM by sulforhodamine B assay
CAKI-1 = assay: Growth inhibition of human Caki1 cells at 10 uM by sulforhodamine B assay
M14 = assay: Growth inhibition of human M14 cells at 10 uM by sulforhodamine B assay
HOP-92 = assay: Growth inhibition of human HOP92 cells at 10 uM by sulforhodamine B assay
CCRF-CEM = assay: Growth inhibition of human CCRF-CEM cells at 10 uM by sulforhodamine B assay
TK-10 = assay: Growth inhibition of human TK10 cells at 10 uM by sulforhodamine B assay
BT-549 = assay: Growth inhibition of human BT549 cells at 10 uM by sulforhodamine B assay
HCT-15 = assay: Growth inhibition of human HCT15 cells at 10 uM by sulforhodamine B assay
RXF 393 = assay: Growth inhibition of human RXF393 cells at 10 uM by sulforhodamine B assay
NCI-H23 = assay: Growth inhibition of human NCI-H23 cells at 10 uM by sulforhodamine B assay
UO-31 = assay: Growth inhibition of human UO31 cells at 10 uM by sulforhodamine B assay
SF-295 = assay: Growth inhibition of human SF295 cells at 10 uM by sulforhodamine B assay
T47D = assay: Growth inhibition of human T47D cells at 10 uM by sulforhodamine B assay
SK-MEL-28 = assay: Growth inhibition of human SK-MEL-28 cells at 10 uM by sulforhodamine B assay
K562 = assay: Growth inhibition of human K562 cells at 10 uM by sulforhodamine B assay
OVCAR-5 = assay: Growth inhibition of human OVCAR5 cells at 10 uM by sulforhodamine B assay
A498 = assay: Growth inhibition of human A498 cells at 10 uM by sulforhodamine B assay
Malme-3M = assay: Growth inhibition of human MALME-3M cells at 10 uM by sulforhodamine B assay
OVCAR-8 = assay: Growth inhibition of human OVCAR8 cells at 10 uM by sulforhodamine B assay
SR = assay: Growth inhibition of human SR cells at 10 uM by sulforhodamine B assay
NCI-H226 = assay: Growth inhibition of human NCI-H226 cells at 10 uM by sulforhodamine B assay
HT-29 = assay: Growth inhibition of human HT-29 cells at 10 uM by sulforhodamine B assay
LOX IMVI = assay: Growth inhibition of human LOXIMVI cells at 10 uM by sulforhodamine B assay
SNB-19 = assay: Growth inhibition of human SNB19 cells at 10 uM by sulforhodamine B assay
NCI-H322M = assay: Growth inhibition of human NCI-H322M cells at 10 uM by sulforhodamine B assay
SK-MEL-2 = assay: Growth inhibition of human SK-MEL-2 cells at 10 uM by sulforhodamine B assay
SF-268 = assay: Growth inhibition of human SF268 cells at 10 uM by sulforhodamine B assay
NCI-H460 = assay: Growth inhibition of human NCI-H460 cells at 10 uM by sulforhodamine B assay
SF-539 = assay: Growth inhibition of human SF539 cells at 10 uM by sulforhodamine B assay
RPMI-8226 = assay: Growth inhibition of human RPMI8226 cells at 10 uM by sulforhodamine B assay
HCC 2998 = assay: Growth inhibition of human HCC2998 cells at 10 uM by sulforhodamine B assay
IGROV-1 = assay: Growth inhibition of human IGROV1 cells at 10 uM by sulforhodamine B assay
SNB-75 = assay: Growth inhibition of human SNB75 cells at 10 uM by sulforhodamine B assay
HOP-62 = assay: Growth inhibition of human HOP62 cells at 10 uM by sulforhodamine B assay
ACHN = assay: Growth inhibition of human ACHN cells at 10 uM by sulforhodamine B assay
KM12 = assay: Growth inhibition of human KM12 cells at 10 uM by sulforhodamine B assay
SK-MEL-5 = assay: Growth inhibition of human SK-MEL-5 cells at 10 uM by sulforhodamine B assay
MOLT-4 = assay: Growth inhibition of human MOLT4 cells at 10 uM by sulforhodamine B assay

Measured: growth inhibition (GI)

COc1cc(-c2nc(-c3ccccc3)c(-c3ccccc3)n2Cc2ccccc2)ccc1OC1CCCCC1
active: MDA-MB-435 | SK-OV-3 | MCF7 | UACC-62 | 786-0 | OVCAR-4 | NCI-H522 | HCT-116 | PC-3 | COLO 205 | A549 | SW-620 | U-251 | HL-60(TB) | UACC-257 | Hs-578T | SN12C | NCI/ADR-RES | MDA-MB-231 | MDA-MB-468 | OVCAR-3 | DU-145 | CAKI-1 | M14 | HOP-92 | CCRF-CEM | TK-10 | BT-549 | HCT-15 | RXF 393 | NCI-H23 | UO-31 | SF-295 | T47D | SK-MEL-28 | K562 | OVCAR-5 | A498 | Malme-3M | OVCAR-8 | SR | NCI-H226 | HT-29 | LOX IMVI | SNB-19 | NCI-H322M | SK-MEL-2 | SF-268 | NCI-H460 | SF-539 | RPMI-8226 | HCC 2998 | IGROV-1 | SNB-75 | HOP-62 | ACHN | KM12 | SK-MEL-5 | MOLT-4

COc1ccc(-c2nc(-c3ccccc3)c(-c3ccccc3)[nH]2)cc1OC1CCCC1
active: MDA-MB-435 | SK-OV-3 | MCF7 | UACC-62 | 786-0 | OVCAR-4 | NCI-H522 | HCT-116 | PC-3 | COLO 205 | A549 | SW-620 | U-251 | HL-60(TB) | UACC-257 | Hs-578T | SN12C | NCI/ADR-RES | MDA-MB-231 | MDA-MB-468 | OVCAR-3 | DU-145 | CAKI-1 | M14 | HOP-92 | CCRF-CEM | TK-10 | BT-549 | HCT-15 | RXF 393 | NCI-H23 | UO-31 | SF-295 | T47D | SK-MEL-28 | K562 | OVCAR-5 | A498 | Malme-3M | OVCAR-8 | SR | NCI-H226 | HT-29 | LOX IMVI | SNB-19 | NCI-H322M | SK-MEL-2 | SF-268 | NCI-H460 | SF-539 | RPMI-8226 | HCC 2998 | IGROV-1 | SNB-75 | HOP-62 | ACHN | KM12 | SK-MEL-5 | MOLT-4
